# Reference: article PMC13047053, “Crystal structure of human INPP5K with an allosteric inhibitor reveals the structural basis for species specific potency” (Scientific Reports, 2026)
# Molecular target: T1, full-length human INPP5K (INPP5K-full) (Homo sapiens, UniProt Q9BT40)
# T1 construct: full-length human INPP5K (amino acids 1–448, UniProt ID: Q9BT40); FLAG (N); made in house; host or cells: Expi293 cells (pcDNA3.4, transient)
# T1 sequence (Q9BT40 1-448): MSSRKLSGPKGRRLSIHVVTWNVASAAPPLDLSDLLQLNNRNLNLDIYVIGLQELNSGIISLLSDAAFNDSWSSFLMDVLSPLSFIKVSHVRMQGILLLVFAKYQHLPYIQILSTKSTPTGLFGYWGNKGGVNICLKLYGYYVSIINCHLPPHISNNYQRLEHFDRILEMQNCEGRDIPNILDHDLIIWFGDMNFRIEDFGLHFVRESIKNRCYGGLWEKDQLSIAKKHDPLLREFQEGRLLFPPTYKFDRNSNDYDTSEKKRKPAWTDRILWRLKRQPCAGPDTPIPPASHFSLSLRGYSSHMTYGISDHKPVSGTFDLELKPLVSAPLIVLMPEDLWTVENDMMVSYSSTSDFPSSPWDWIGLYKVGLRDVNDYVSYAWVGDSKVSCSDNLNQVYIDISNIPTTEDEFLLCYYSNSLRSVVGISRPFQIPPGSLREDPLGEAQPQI
# Test: Fluorescence polarization assay to evaluate phosphatase inhibition
# Type: biochemical
# Conditions: 20 µM diC8-PI(3,4,5)P3, 30 min
# From the text: The protein purification is described in detail elsewhere. Briefly, full-length human INPP5K (amino acids 1–448, UniProt ID: Q9BT40), rat INPP5K (aa 1–446, UniProt ID: Q9R0B6), mouse INPP5K (aa 1–468, UniProt ID: Q8C5L6), hamster INPP5K (aa 1–453, UniProt ID: G3HTF6), guinea pig INPP5K (aa 1–473, UniProt ID: H0V8T7) containing an N-terminal FLAG-tag, full-length human SHIP2 (aa 1–1 258) containing a C-terminal FLAG-tag, and full-length human PIPP (amino acids 1–1 006) containing an N-terminal His8-tag were all cloned into the pcDNA3.4 expression vector and transiently expressed in Expi293 cells (Thermo Fisher Scientific). […] The purity of the protein obtained was evaluated using SDS-PAGE.
# HTS assays were performed as described previously. […] Fluorescence polarization was evaluated using an Envision plate reader (PerkinElmer, U.S. LLC, Shelton, CT, USA) at 531/595 nm (excitation/emission) and calculated as 1 000 × [(I||- (G × I⊥))/(I||+ (G × I⊥))], where I|| is the parallel intensity, I⊥ is the perpendicular intensity, and G = 2.25. The amount of diC8-PI(3,4)P₂ product (P) was determined by standard curve fitting, and the percentage inhibition was calculated using the following equation: 100 × (Pctrl—P)/(Pctrl—Pblank), where Pctrl is the no-inhibitor control and Pblank is the no-enzyme control. […]
smiles,measurement,value
CC(C)c1sc(NC(=O)c2ccccc2)c(C(=O)O)c1-c1ccccc1 [CPD-1],IC50,3.7 µM
